In patent publication US7569577B2, “Quinazoline derivatives as tyrosine kinase inhibitors” (Astrazeneca AB, priority 2003, dated 2009):

Key:
[1] = target: T1, EGFR tyrosine kinase (Homo sapiens, UniProt P00533); experiment: Protein tyrosine kinase phosphorylation assay, Test (a); type: biochemical; conditions: ATP at Km concentration; read-out: IC50 (nM) Test (a) (Inhibition of EGFR tyrosine kinase protein phosphorylation)
T1 construct: Recombinant intracellular fragments of EGFR, erbB2 and erbB4; made in house; host or cells: baculovirus/Sf21 insect cells (cleared lysate used)
Procedure: This test measures the ability of a test compound to inhibit the phosphorylation of a tyrosine containing polypeptide substrate by EGFR, erbB2 or erbB4 tyrosine kinase enzyme.
Recombinant intracellular fragments of EGFR, erbB2 and erbB4 (accession numbers X00588, X03363 and L07868 respectively) were cloned and expressed in the baculovirus/Sf21 system. Lysates were prepared from these cells by treatment with ice-cold lysis buffer (20 mM N-2-hydroxyethylpiperizine-N′-2-ethanesulfonic acid (HEPES) pH 7.5, 150 mM NaCl, 10% glycerol, 1% Triton X-100, 1.5 mM MgCl2, 1 mM ethylene glycol-bis(β-aminoethyl ether) N′,N′,N′,N′-tetraacetic acid (EGTA), plus protease inhibitors and then cleared by centrifugation.
Constitutive kinase activity of these recombinant proteins was determined by their ability to phosphorylate a synthetic peptide (made up of a random co-polymer of Glutamic Acid, Alanine and Tyrosine in the ratio of 6:3:1). Specifically, Maxisorb™ 96-well immunoplates were coated with synthetic peptide (0.2 μg of peptide in a 200 μl phosphate buffered saline (PBS) solution and incubated at 4° C. overnight). Plates were washed in 50 mM HEPES pH 7.4 at room temperature to remove any excess unbound synthetic peptide. EGFR or erbB2 activities were assessed by incubation in peptide coated plates for 20 minutes at room temperature in 100 mM HEPES pH 7.4 at room temperature, adenosine trisphosphate (ATP) at Km concentration for the respective enzyme, 10 mM MnCl2, 0.1 mM Na3VO4, 0.2 mM DL-dithiothreitol (DTT), 0.1% Triton X-100 with test compound in DMSO (final concentration of 2.5%). Reactions were terminated by the removal of the liquid components of the assay followed by washing of the plates with PBS-T (phosphate buffered saline with 0.5% Tween 20).
The immobilised phospho-peptide product of the reaction was detected by immunological methods. Firstly, plates were incubated for 90 minutes at room temperature with anti-phosphotyrosine primary antibodies that were raised in the mouse (4G10 from Upstate Biotechnology). Following extensive washing, plates were treated with Horseradish Peroxidase (HRP) conjugated sheep anti-mouse secondary antibody (NXA931 from Amersham) for 60 minutes at room temperature. After further washing, HRP activity in each well of the plate was measured colorimetrically using 22′-Azino-di-[3-ethylbenzthiazoline sulfonate (6)] diammonium salt crystals (ABTS™ from Roche) as a substrate.
Quantification of colour development and thus enzyme activity was achieved by the measurement of absorbance at 405 nm on a Molecular Devices ThermoMax microplate reader. Kinase inhibition for a given compound was expressed as an IC50 value. […] The range of phosphorylation was calculated from the positive (vehicle plus ATP) and negative (vehicle minus ATP) control values.

[2] = system: KB cells; experiment: EGFR driven KB cell proliferation assay, Test (b); type: cell-based; conditions: Homo sapiens, 96 h, EGF 1 ng/ml, 4 days, MTT
Procedure: This assay measures the ability of a test compound to inhibit the proliferation of KB cells (human naso-pharangeal carcinoma obtained from the American Type Culture Collection (ATCC)).
KB cells were cultured in Dulbecco's modified Eagle's medium (DMEM) containing 10% foetal calf serum, 2 mM glutamine and non-essential amino acids at 37° C. in a 7.5% CO2 air incubator. Cells were harvested from the stock flasks using Trypsin/ethylaminediaminetetraacetic acid (EDTA). Cell density was measured using a haemocytometer and viability was calculated using trypan blue solution before being seeded at a density of 1.25×10^3 cells per well of a 96 well plate in DMEM containing 2.5% charcoal stripped serum, 1 mM glutamine and non-essential amino acids at 37° C. in 7.5% CO2 and allowed to settle for 4 hours.
Following adhesion to the plate, the cells are treated with or without EGF (final concentration of 1 ng/ml) and with or without compound at a range of concentrations in dimethylsulfoxide (DMSO) (0.1% final) before incubation for 4 days. Following the incubation period, cell numbers were determined by addition of 50 μl of 3-(4,5-Dimethylthiazol-2-yl)-2,5-diphenyltetrazolium bromide (MTT) (stock 5 mg/ml) for 2 hours. MTT solution was then tipped off, the plate gently tapped dry and the cells dissolved upon the addition of 100 μl of DMSO.
Absorbance of the solubilised cells was read at 540 nm using a Molecular Devices ThermoMax microplate reader. Inhibition of proliferation was expressed as an IC50 value. […] The range of proliferation was calculated from the positive (vehicle plus EGF) and negative (vehicle minus EGF) control values.

T1 sequence (P00533 669-1210 limits assumed): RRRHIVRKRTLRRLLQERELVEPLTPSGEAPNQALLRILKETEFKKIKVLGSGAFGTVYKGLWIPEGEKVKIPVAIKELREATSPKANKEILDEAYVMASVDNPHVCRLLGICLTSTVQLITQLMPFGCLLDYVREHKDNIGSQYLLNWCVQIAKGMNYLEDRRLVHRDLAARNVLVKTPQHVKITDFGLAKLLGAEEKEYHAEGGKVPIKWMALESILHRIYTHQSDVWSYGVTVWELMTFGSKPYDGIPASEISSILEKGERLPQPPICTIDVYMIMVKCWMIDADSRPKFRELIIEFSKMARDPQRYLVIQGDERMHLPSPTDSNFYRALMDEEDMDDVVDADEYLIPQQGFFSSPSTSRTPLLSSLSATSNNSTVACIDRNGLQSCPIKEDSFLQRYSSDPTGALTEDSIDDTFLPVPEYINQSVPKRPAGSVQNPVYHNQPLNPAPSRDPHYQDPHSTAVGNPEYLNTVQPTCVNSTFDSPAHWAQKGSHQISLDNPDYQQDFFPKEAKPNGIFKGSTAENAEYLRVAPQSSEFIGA

| SMILES | IC50 [1] [nM] | IC50 [2] [nM] | melting point [°C] |
| --- | --- | --- | --- |
| COCCC(=O)N1CCC(Oc2cc3ncnc(Nc4cccc(Cl)c4F)c3cc2OC)CC1 [4[3], N-(3-Chloro-2-fluorophenyl)-6-methoxy-7-{[1-(3-methoxypropanoyl)piperidin-4-yl]oxy}quinazolin-4-amine] | 65 | 84 |  |
| COc1cc2c(Nc3cccc(Cl)c3F)ncnc2cc1OC1CCN(C(=O)[C@@H](C)O)CC1 [Example 9, (2R)-1-[4-({4-[3-Chloro-2-fluoroanilino]-6-methoxyquinazolin-7-yl}oxy)piperidin-1-yl]-1-oxopropan-2-ol] |  |  | 189 to 189.5 |
| COc1cc2c(Nc3cccc(Cl)c3F)ncnc2cc1OC1CCN(C(=O)[C@@H]2CCCN2C)CC1 (hydrate or solvate) [Example 34, N-(3-chloro-2-fluorophenyl)-6-methoxy-7-{[1-(1-methyl-L-prolyl)piperidin-4-yl]oxy}quinazolin-4-amine] |  |  | 193 |
| COc1cc2c(Nc3cccc(Cl)c3F)ncnc2cc1O[C@H]1CCCN(C(=O)CN2CCN(C)CC2)C1 [Example 7, N-(3-Chloro-2-fluorophenyl)-6-methoxy-7-({(3S)-1-[(4-methylpiperazin-1-yl)acetyl]piperidin-3-yl}oxy)quinazolin-4-amine] |  |  | 120 to 121 |
| COc1cc2c(Nc3cccc(Cl)c3F)ncnc2cc1OC1CCN(C(=O)CCO)CC1 [4[4], 3-[4-({4-[3-Chloro-2-fluoroanilino]-6-methoxyquinazolin-7-yl}oxy)piperidin-1-yl]-3-oxopropan-1-ol] | 52 | 109 |  |
| COCCOCC(=O)N1CCC(Oc2cc3ncnc(Nc4cccc(Cl)c4F)c3cc2OC)CC1 [Example 2, N-(3-Chloro-2-fluorophenyl)-6-methoxy-7-({1-[(2-methoxyethoxy)acetyl]piperidin-4-yl}oxy)quinazolin-4-amine] | 76 | 112 | 110 to 111 |
| COc1cc2c(Nc3cccc(Cl)c3F)ncnc2cc1OC1CCN(C(=O)[C@H](C)O)CC1 [Example 4[5], (2S)-1-[4-({4-[3-chloro-2-fluoroanilino]-6-methoxyquinazolin-7-yl}oxy)piperidin-1-yl]-1-oxopropan-2-ol] |  |  | 107 to 111 |
| COCC(=O)N1CCC(Oc2cc3ncnc(Nc4cccc(Cl)c4F)c3cc2OC)CC1 [Example 3, N-(3-Chloro-2-fluorophenyl)-6methoxy-7-{[1-(methoxyacetyl)piperidin-4-yl]oxy}quinazolin-4-amine] | 41 | 55 |  |
| COc1cc2c(Nc3ccc(Cl)cc3F)ncnc2cc1OC1CCN(C(=O)[C@@H](C)O)CC1 (hydrate or solvate) [Example 33, (2R)-1-[4-({4-[4-chloro-2-fluoroanilino]-6-methoxyquinazolin-7-yl}oxy)piperidin-1-yl]-1-oxopropan-2-ol] |  |  | 118 |
| COc1cc2c(Nc3ccc(F)c(Cl)c3)ncnc2cc1OC1CCN(C(=O)[C@@H](C)O)CC1 (hydrate or solvate) [Example 23, (2R)-1-[4-({4-[3-Chloro-4-fluoroanilino]-6methoxyquinazolin-7-yl}oxy)piperidin-1-yl]-1-oxopropan-2-ol] |  |  | 143.6 |
| COc1cc2c(Nc3cccc(Cl)c3F)ncnc2cc1OC1CCN(C(=O)CO)CC1 [4[1], 2-[4-({4-[3-Chloro-2-fluoroanilino]-6-methoxyquinazolin-7-yl}oxy)piperidin-1-yl]-2-oxoethanol] | 30 | 37 |  |
| COc1cc2c(Nc3ccc(Cl)cc3F)ncnc2cc1OC1CCN(C(=O)[C@H](C)O)CC1 (hydrate or solvate) [Example 32] |  |  | 149 |
